Laboratory results reported in US20120121540A1 (priority 2007, published 2012).

Experiment: HCV replicon assay (luciferase reporter, ET cell line)
Type: cell-based
Conditions: Hepatitis C virus, HCV replicon luciferase activity in ET cells
In short: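 EC50 and, via WST-1 cytotoxicity, TC50 were fitted with a Hill-coefficient equation to % inhibition across 10 two-fold dilutions. Compounds at 0.1 nM-[…] with 0.5% DMSO were applied 24 h post-seeding to replicon-bearing ET cells (luc-ubi-neo/NS3-5B, adaptive mutations). Firefly luciferase signal was measured after 48-72 h.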

With `O=C(c1nc2c(C(F)(F)F)cc(-c3ccoc3)cn2c1Cl)N1CC=C(C2=CN=CNC2)CC1` [Compound 619, [3-chloro-6-(furan-3-yl)-8-(trifluoromethyl)imidazo[1,2-a]pyridin-2-yl][4-(1,6-dihydropyrimidin-5-yl)-3,6-dihydropyridin-1(2H)-yl]methanone] as the compound, how does the inhibition at 10 µM read?
The inhibition at 10 µM was 44%.

With `O=C(c1nc2c(C(F)(F)F)cc(-c3ccoc3)cn2c1Cl)N1CCC(n2cc(-c3ccccc3)[nH]c2=O)CC1` [Compound 553, 1-[1-(3-Chloro-6-furan-3-yl-8-trifluoromethyl-imidazo[1,2-a]pyridine-2-carbonyl)-piperidin-4-yl]-4-phenyl-1,3-dihydro-imidazol-2-one] as the compound, how does the inhibition at 10 µM read?
The inhibition at 10 µM was 43.6%.

With `O=C(c1nc2c(C(F)(F)F)cc(-c3cn[nH]c3)cn2c1-c1cn[nH]c1)N1CCC(c2cccc(F)c2)C1` (stereo not drawn) [Compound 486, [3,6-Bis-(1H-pyrazol-4-yl)-8-trifluoromethyl-imidazo[1,2-a]pyridin-2-yl]-[3-(3-fluoro-phenyl)-pyrrolidin-1-yl]-methanone] as the compound, how does the inhibition at 10 µM read?
The inhibition at 10 µM was 65.8%.

Which inhibition at 10 µM does the source give for `O=C(NCc1cccs1)c1nc2c(C(F)(F)F)cc(C3=CCCCO3)cn2c1Cl` [Compound 284, 3-Chloro-6-(5,6-dihydro-4H-pyran-2-yl)-8-trifluoromethyl-imidazo[1,2-a]pyridine-2-carboxylic Acid (thiophen-2-ylmethyl)-amide] here?
The inhibition at 10 µM was 98.8%.

With `O=C(c1nc2c(C(F)(F)F)cc(-c3ccco3)cn2c1Cl)N1CCC(c2ccccc2)CC1` [Compound 218, (3-Chloro-6-furan-2-yl-8-trifluoromethyl-imidazo[1,2-a]pyridin-2-yl)-(4-phenyl-piperidin-1-yl)-methanone] as the compound, how does the inhibition at 10 µM read?
Its inhibition at 10 µM is 63.5%.

With `O=C(NCc1cccs1)c1cn2cc(-c3ccco3)cc(C(F)(F)F)c2n1` [Compound 138, 6-Furan-2-yl-8-trifluoromethyl-imidazo[1,2-a]pyridine-2-carboxylic Acid (thiophen-2-ylmethyl)-amide] as the compound, how does the inhibition at 10 µM read?
Its inhibition at 10 µM is 92.1%.

With `O=C(NCc1ccccc1)c1cc2cc(-c3ccccc3)cc(I)n2n1` [Compound 129, 7-Iodo-5-phenyl-pyrazolo[1,5-a]pyridine-2-carboxylic Acid benzylamide] as the compound, how does the inhibition at 10 µM read?
Its inhibition at 10 µM is 43%.

Which inhibition at 10 µM does the source give for `FC(F)(F)c1cc(-c2ccoc2)cn2cc(-c3cc(-c4ccccc4)no3)nc12` [Compound 654, 6-Furan-3-yl-2-(3-phenyl-isoxazol-5-yl)-8-trifluoromethyl-imidazo[1,2-a]pyridine] here?
Its inhibition at 10 µM is 20.4%.

With `O=C(NCc1cccs1)c1cc2cc(-c3ccccc3)cc(Cl)c2[nH]1` [Compound 106, 7-Chloro-5-phenyl-1H-indole-2-carboxylic Acid (thiophen-2-ylmethyl)-amide] as the compound, how does the inhibition at 10 µM read?
Its inhibition at 10 µM is 60.8%.

For `O=C(c1cn2cc(-c3ccoc3)cc(C(F)(F)F)c2n1)N1CCC(c2cccc(F)c2)C1` (stereo not drawn) [Compound 638, [3-(3-Fluoro-phenyl)-pyrrolidin-1-yl]-(6-furan-3-yl-8-trifluoromethyl-imidazo[1,2-a]pyridin-2-yl)-methanone], which inhibition at 10 µM is on record?
Its inhibition at 10 µM is 98.5%.

For `O=C(c1nc2c(C(F)(F)F)cc(-c3ccoc3)cn2c1Cl)N1CCCCC1c1ccccc1F` (stereo not drawn) [Compound 544, (3-Chloro-6-furan-3-yl-8-trifluoromethyl-imidazo[1,2-a]pyridin-2-yl)-[2-(2-fluoro-phenyl)-piperidin-1-yl)-methanone], which inhibition at 10 µM is on record?
Its inhibition at 10 µM is 75.4%.

For `CN(C)CCNC(=O)Cc1c(C(=O)N2CCC(c3ccc(F)cc3)C2)nc2c(C(F)(F)F)cc(-c3ccoc3)cn12` (stereo not drawn) [Compound 241, N-(2-Dimethylamino-ethyl)-2-{2-[3-(4-fluoro-phenyl)-pyrrolidine-1-carbonyl]-6-furan-3-yl-8-trifluoromethyl-imidazo[1,2-a]pyridin-3-yl}-acetamide], which inhibition at 10 µM is on record?
Its inhibition at 10 µM is 100%.

With `O=C(c1nc2c(C(F)(F)F)cc(-c3ccoc3)cn2c1Cl)N1CC=C(c2ncc(CO)s2)CC1` [Compound 573, (3-Chloro-6-furan-3-yl-8-trifluoromethyl-imidazo[1,2-a]pyridine-2-yl)-[4-(5-hydroxymethyl-thiazol-2-yl)-3,6-dihydro-2H-pyridin-1-yl]-methanone] as the compound, how does the inhibition at 10 µM read?
Its inhibition at 10 µM is 91.2%.

With `CN(Cc1cccs1)C(=O)c1cc2cc(-c3ccccc3)cc(C(F)(F)F)n2n1` [Compound 147, 5-phenyl-7-trifluoromethyl-pyrazolo[1,5-a]pyridine-2-carboxylic Acid methyl-thiophen-2-ylmethyl-amide] as the compound, how does the inhibition at 10 µM read?
Its inhibition at 10 µM is 26.8%.

For `CNC(=O)Cc1c(C(=O)N2CCC(c3ccc(F)cc3)C2)nc2c(C(F)(F)F)cc(-c3ccoc3)cn12` (stereo not drawn) [Compound 245, 2-{2-[3-(4-Fluoro-phenyl)-pyrrolidine-1-carbonyl]-6-furan-3-yl-8-trifluoromethyl-imidazo[1,2-a]pyridin-3-yl}-N-methyl-acetamide], which inhibition at 10 µM is on record?
Its inhibition at 10 µM is 63.9%.

For `O=C(CNC(=O)c1nc2c(C(F)(F)F)cc(-c3ccoc3)cn2c1Cl)c1cccc(F)c1` [Compound 409, 3-Chloro-6-furan-3-yl-8-trifluoromethyl-imidazo[1,2-a]pyridine-2-carboxylic Acid[2-(3-fluoro-phenyl)-2-oxo-ethyl]-amide], which inhibition at 10 µM is on record?
Its inhibition at 10 µM is 46.6%.

With `O=C(c1cn2cc(-c3ccoc3)cc(C(F)(F)F)c2n1)N1CCC(c2ccccc2F)C1` (stereo not drawn) [Compound 337, [3-(2-Fluoro-phenyl)-pyrrolidin-1-yl]-(6-furan-3-yl-8-trifluoromethyl-imidazo[1,2-a]pyridin-2-yl)-methanone] as the compound, how does the inhibition at 10 µM read?
Its inhibition at 10 µM is 97.7%.

For `O=C(NCc1nccs1)c1nc2c(C(F)(F)F)cc(-c3ccoc3)cn2c1Cl` [Compound 415, 3-Chloro-3-furan-3-yl-8-trifluomethyl-imidazo[1,2-a]-pyridine-2-carboxylic Acid (thiazol-2-ylmethyl)-amide], which inhibition at 10 µM is on record?
Its inhibition at 10 µM is 92.6%.

Which inhibition at 10 µM does the source give for `O=C(NCc1cccs1)c1nc2c(Cl)cc(-c3ccccc3)cn2c1Br` [Compound 369, 3-Bromo-8-chloro-6-phenyl-imidazo[1,2-a]pyridine-2-carboxylic Acid (thiophen-2-ylmethyl)-amide] here?
Its inhibition at 10 µM is 88%.

Which inhibition at 10 µM does the source give for `O=C(c1nc2c(C(F)(F)F)cc(-c3ccoc3)cn2c1Cl)N1CCC(c2cccc(F)c2)C1` (stereo not drawn) [Compound 334, (3-Chloro-6-furan-3-yl-8-trifluoromethyl-imidazo[1,2-a]pyridin-2-yl)-[3-(3-fluoro-phenyl)-pyrrolidin-1-yl]-methanone] here?
The inhibition at 10 µM was 96.1%.

For `O=C(NCc1ccccc1F)c1nc2c(C(F)(F)F)cc(-c3ccco3)cn2c1Cl` [Compound 201, 3-Chloro-6-furan-2-yl-8-trifluoromethyl-imidazo[1,2-a]pyridine-2-carboxylic acid 2-fluoro-benzylamide], which inhibition at 10 µM is on record?
Its inhibition at 10 µM is 72.4%.

Which inhibition at 10 µM does the source give for `O=C(c1nc2c(C(F)(F)F)cc(-c3cn[nH]c3)cn2c1Br)N1CCC(c2nccs2)CC1` [Compound 611, [3-Bromo-6-(1H-pyrazol-4-yl)-8-trifluoromethyl-imidazo[1,2-a]pyridin-2-yl]-(4-thiazol-2-yl-piperidin-1-yl)-methanone] here?
Its inhibition at 10 µM is 92.4%.

For `CC(C)(C)C#Cc1c(C(=O)NCc2cccs2)nc2c(C(F)(F)F)cc(-c3cccc(F)c3)cn12` [Compound 307, 3-(3,3-Dimethyl-but-1-ynyl)-6-(3-fluoro-phenyl)-8-trifluoromethyl-imidazo[1,2-a]pyridine-2-carboxylic Acid (thiophen-2-ylmethyl)-amide], which inhibition at 10 µM is on record?
The inhibition at 10 µM was 33.5%.

Which inhibition at 10 µM does the source give for `O=C(O)Cc1c(C(=O)NCc2cccs2)nc2c(C(F)(F)F)cc(-c3ccoc3)cn12` [Compound 226, {6-Furan-3-yl-2-[(thiophen-2-ylmethyl)-carbamoyl]-8-trifluoromethyl-imidazo[1,2-a]pyridin-3-yl}-acetic Acid] here?
The inhibition at 10 µM was 98.8%.

For `COC(=O)C(NC(=O)c1nc2c(C(F)(F)F)cc(-c3ccco3)cn2c1Cl)c1cccs1` (stereo not drawn) [Compound 166, [(3-Chloro-6-furan-2-yl-8-trifluoromethyl-imidazo[1,2-a]pyridine-2-carbonyl)-amino]-thiophen-2-yl-acetic acid methyl ester], which inhibition at 10 µM is on record?
The inhibition at 10 µM was 49.1%.

Which inhibition at 10 µM does the source give for `O=C(c1nc2c(C(F)(F)F)cc(-c3ccoc3)cn2c1Cl)N1CCN(c2cnccn2)CC1` [Compound 537] here?
Its inhibition at 10 µM is 61%.

For `C[C@H](CNC(=O)c1nc2c(C(F)(F)F)cc(-c3ccoc3)cn2c1Cl)c1ccccc1` [Compound 414, 3-Chloro-6-furan-3-yl-8-trifluoromethyl-imidazo[1,2-a]pyridine-2-carboxylic Acid (2-phenyl-propyl)-amide], which inhibition at 10 µM is on record?
The inhibition at 10 µM was 76.3%.

With `O=C(c1nc2c(C(F)(F)F)cc(-c3cn[nH]c3)cn2c1Br)N1CCC(c2ccccc2)C1` (stereo not drawn) [Compound 461, (3-Bromo-6-(1H-pyrazol-4-yl)-8-trifluoromethyl-imidazo[1,2-a]pyridin-2-yl)-(3-phenyl-pyrrolidin-1-yl)-methanone] as the compound, how does the inhibition at 10 µM read?
Its inhibition at 10 µM is 94.3%.

Which inhibition at 10 µM does the source give for `O=C(NCc1cccs1)c1cn2cc(-c3ccccc3)cc(C(F)(F)F)c2n1` [Compound 137, 6-Phenyl-8-trifluoromethyl-imidazo[1,2-a]pyridine-2-carboxylic Acid (thiophen-2-ylmethyl)-amide] here?
The inhibition at 10 µM was 63%.

For `O=C(c1cn2cc(-c3ccccc3)cc(C(F)(F)F)c2n1)N1CCC(c2cccc(F)c2)C1` (stereo not drawn) [Compound 639, [3-(3-Fluoro-phenyl)-pyrrolidin-1-yl]-(6-phenyl-8-trifluoromethyl-imidazo[1,2-a]pyridin-2-yl)-methanone], which inhibition at 10 µM is on record?
The inhibition at 10 µM was 71.9%.

With `COC(=O)c1cc(C(F)(F)F)c2nc(C(=O)NCc3cccs3)c(Cl)n2c1` [Compound 312, 3-Chloro-2-[(thiophen-2-ylmethyl)-carbamoyl]-8-trifluoromethyl-imidazo[1,2-a]pyridine-6-carboxylic Acid Methyl Ester] as the compound, how does the inhibition at 10 µM read?
The inhibition at 10 µM was 76.2%.

Which inhibition at 10 µM does the source give for `O=C(NCCN1CCOCC1)[C@@H]1CN(C(=O)c2nc3c(C(F)(F)F)cc(-c4ccoc4)cn3c2Cl)C[C@H]1c1ccccc1` (stereo in doubt) [Compound 225] here?
Its inhibition at 10 µM is 39.8%.

Which inhibition at 10 µM does the source give for `O=C(c1nc2c(C(F)(F)F)cc(-c3ccoc3)cn2c1Cl)N1CC=C(c2ccn[nH]2)CC1` [Compound 584, (3-Chloro-6-furan-3-yl-8-trifluoromethyl-imidazo[1,2-a]pyridin-2-yl)-[4-(2H-pyrazol-3-yl)-3,6-dihydro-2H-pyridin-1-yl]methanone] here?
Its inhibition at 10 µM is 72.5%.
